Measured values: US20140329863A1 (priority 2011, published 2014)

How the values were obtained:
[1] = Binding in mouse plasma; conditions: for Percentage binding, Mouse plasma, 1 μM / Unbound (%), Mouse Plasma: 1 μM; for Unbound (%), Mouse Plasma: mean ± SD, n = 3 (warfarin n = 2)
[2] = target: T1, CYP2D6 (Homo sapiens, UniProt P10635); experiment: CYP phenotyping in human liver microsomes, quinidine; assay type: in vitro ADME; conditions: for CYP Involvement: CYP2D6, NADPH + Quinidine; for % Disappearance / Measured Conc. / Δ % Disappearance: reversible incubation condition, NADPH + Quinidine
T1 construct: tissue BD Biosciences; host or cells: pooled human liver microsomes

[3] = test system: MDCK-MDR^1 cells (P-glycoprotein); experiment: Bidirectional MDCK-MDR1 cell permeability; assay type: in vitro ADME, canine
Procedure: MDCK-MDR^1 cells were grown to confluence for 5-10 days on 1-μm filters in 24-well plates {Hilgers, 1990}. Aliquots of DMSO stocks were diluted into Hank's balanced salt solution (HBSS), pH 7.4, containing […] to give 10-μM solute concentration. The solute containing donor solutions were transferred to either the apical or basolateral chamber of the permeability diffusion apparatus. Receiver solutions consisted of HBSS (pH 7.4) containing 25 mM HEPES+0.05% PS80. Sequential samples of transported solute were taken at 20-min intervals using an automated liquid handling platform. The concentration of transported solute during each sampling interval was determined by HPLC/UV/MS. Permeability coefficients were calculated for each sampling interval. The average and standard deviation from the intervals are reported. Mass balance in the system was ascertained by comparing the sum of total transported solute and remaining donor solute with the starting mass of solute and is expressed as a percentage of donor solute at time zero. […] In the event of mass balance less than 70%, the cell monolayers were extracted with ACN and analyzed for the solute of interest. Determinations were conducted in duplicate.

[4] = Binding in human plasma; conditions: for Percentage binding, Human plasma, 1 μM / Unbound (%), Human Plasma: 1 μM; for Unbound (%), Human Plasma: mean ± SD, n = 3 (warfarin n = 2)
[5] = Binding in rat plasma
[6] = Fraction unbound in cell-culture media; assay type: in vitro ADME; conditions: 1 μM; mean ± SD, n = 3
[7] = target: CYP2C19 (Homo sapiens, UniProt P33261); conditions: for CYP Involvement: CYP2C19, NADPH + N-3-B; for Δ % Disappearance: reversible incubation condition, NADPH + N-3-B
[8] = test system: CYP2C19; conditions: reversible incubation condition, NADPH + N-3-B
[9] = Metabolite identification in human, mouse, rat and dog liver microsomes; assay type: in vitro ADME
Procedure: Samples were injected onto a BetaBasic C18 column and eluted with a gradient elution of mobile phase B (0.1% formic acid in ACN) from 5% to 95% over 30 min. For IND24-containing samples, the transitions monitored were 344→226 (parent); 360→226 and 360→242 (monohydroxylation); and 376→242 and 376→258 (dihydroxylation). […] Plasma and brain homogenate samples from FVB mice in single-dose (10 mg/kg) pharmacokinetic studies were similarly scanned to detect potential hydroxylated metabolites.
Metabolites were separated on a Kinetex 100-Å column (2.6 μm, 100×2.1 mm, Phenomenex, Torrance, Calif.) at ambient temperature. […]
The Orbitrap mass analyzer was calibrated according to the manufacturer's directions using a mixture of caffeine, Met-Arg-Phe-Ala (MRFA) peptide and Ultramark 1621. The parent compounds and their metabolites were detected by full scan mass analysis from m/z 150-1000 at a resolving power of 60,000 [at m/z 400, full width at half maximum (FWHM); 1-s acquisition] with data-dependent MS/MS analyses triggered by the most abundant ion. […] The data obtained was analyzed using Xcalibur v2.1 software (ThermoScientific; Waltham Mass.). Four-decimal monoisotopic masses of the parent compounds and their oxidative metabolites calculated using ChemBioDraw Ultra software version 11.0 (CambridgeSoft; Cambridge, Mass.) were used to interpret further the fragment ions.

Chain of CYP2C19 (Homo sapiens, UniProt P33261) (P33261 whole entry): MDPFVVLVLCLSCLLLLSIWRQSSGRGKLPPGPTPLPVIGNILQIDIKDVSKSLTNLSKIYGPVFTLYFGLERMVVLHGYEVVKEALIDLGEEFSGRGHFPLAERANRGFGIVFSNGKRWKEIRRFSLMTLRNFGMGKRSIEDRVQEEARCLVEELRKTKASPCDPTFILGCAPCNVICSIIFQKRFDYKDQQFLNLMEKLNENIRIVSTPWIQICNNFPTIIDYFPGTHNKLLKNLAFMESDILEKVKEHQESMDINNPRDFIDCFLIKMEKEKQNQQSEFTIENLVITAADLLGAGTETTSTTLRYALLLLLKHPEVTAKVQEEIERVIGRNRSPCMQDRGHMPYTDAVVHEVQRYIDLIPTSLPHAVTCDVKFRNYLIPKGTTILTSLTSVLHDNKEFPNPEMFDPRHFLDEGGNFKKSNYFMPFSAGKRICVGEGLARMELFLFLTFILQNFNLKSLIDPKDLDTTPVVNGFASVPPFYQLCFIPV
T1 sequence (P10635 whole entry): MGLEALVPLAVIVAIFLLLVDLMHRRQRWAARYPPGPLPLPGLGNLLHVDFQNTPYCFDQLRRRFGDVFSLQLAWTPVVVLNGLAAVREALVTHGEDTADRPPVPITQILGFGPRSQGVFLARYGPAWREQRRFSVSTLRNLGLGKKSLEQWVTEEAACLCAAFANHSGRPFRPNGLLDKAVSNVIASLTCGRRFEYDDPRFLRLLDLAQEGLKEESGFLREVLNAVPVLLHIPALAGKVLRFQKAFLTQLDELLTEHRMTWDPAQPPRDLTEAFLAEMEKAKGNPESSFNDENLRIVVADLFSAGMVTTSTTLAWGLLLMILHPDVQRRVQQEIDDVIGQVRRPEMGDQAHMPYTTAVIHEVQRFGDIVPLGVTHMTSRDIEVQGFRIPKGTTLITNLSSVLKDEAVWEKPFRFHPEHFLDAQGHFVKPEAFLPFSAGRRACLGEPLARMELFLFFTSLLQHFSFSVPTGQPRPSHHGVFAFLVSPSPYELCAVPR

Compound | Percentage binding, Mouse plasma, 1 μM [1] | Unbound (%), Mouse Plasma [1] | Percentage binding, Mouse plasma, 10 μM [1] | CYP Involvement [2] | % Disappearance [2] | Measured Conc. [2] | Δ % Disappearance [2] | P-gp substrate status, absorptive vs secretory permeability [3] | Percentage binding, Human plasma, 1 μM [4] | Unbound (%), Human Plasma [4] | Percentage binding, Human plasma, 10 μM [4] | Percentage binding, Rat plasma, 1 μM [5] | Percentage binding, Rat plasma, 10 μM [5] | Unbound (%), Cell-culture Media [6] | CYP Involvement [7] | Δ % Disappearance [7] | % Disappearance [8] | Measured Conc. [8] | major metabolites [9]
Cc1cccc(Nc2nc(-c3ccc(-c4ccccc4)cc3)cs2)n1 [IND24, (4-Biphenyl-4-yl-thiazol-2-yl)-(6-methyl-pyridin-2-yl)-amine] | 93.4 ± 1.55% | 6.63 ± 1.55% | 95.8 ± 0.14% | Unlikely (unlikely for values <5) | 15% | 0.555 µM | 0 (−15) % | not substrates | 95.1 ± 1.03% | 4.91 ± 1.03% | 95.4 ± 1.17% | 93.4 ± 2.13% | 94.0 ± 1.04% | 25.7 ± 4.93% | Unlikely (unlikely for values <5) | 0 (−18) % | 18% | 0.537 µM | ring hydroxylation
Cc1ccnc(Nc2nc(-c3ccc(-c4ccccn4)s3)cs2)c1 [IND81, (4-Methyl-pyridin-2-yl)-[4-(5-pyridin-2-yl-thiophen-2-yl)-thiazol-2-yl]-amine] | 93.5 ± 1.10% | 6.48 ± 1.10% | 96.0 ± 0.04% | Likely (likely for values >10) | 55% | 0.300 µM | 11% | not substrates | 94.2 ± 3.21% | 5.78 ± 3.21% | 95.2 ± 0.86% | 94.2 ± 0.48% | 95.5 ± 0.66% | 23.2 ± 2.68% | Possible (possible for values 5-10) | 8.5% | 57% | 0.283 µM | ring hydroxylation
